One assay has as its system human neutrophils. Put plainly: Reperfusion injury assay: complement-induced human neutrophil adhesion in rabbit isolated heart. Details: species or system human neutrophils; New Zealand White rabbit heart. The following applies: 4% normal human plasma, 0.1 mg/ml (0.001, 0.01 and 0.1 mg/ml tested), read-out: % Neutrophil Inhibition (neutrophil accumulation). The text has this:
Experiments were done to determine the effectiveness of compound 7 in decreasing adhesion of human neutrophils in the rabbit isolated heart. Addition of the human plasma to the rabbit isolated heart results in activation of the complement components found within the plasma, which in turn promotes an increase in the neutrophil accumulation. This model is used to determine the effect of sLe^x analogues on inhibiting complement-induced neutrophil adhesion. Hearts from New Zealand White rabbits were excised, mounted on a modified Langendorff apparatus and perfused with Krebs-Heinseleit buffer. Cardiac functional parameters were monitored upon a Grass Model 79D polygraph machine. 4% normal human plasma (NHP) was added to the recirculating buffer. Ten minutes after the addition of the plasma, 13b (0.1 mg/ml) was added to the perfusate. After 15 minutes of perfusion with the plasma, 51-chromium labelled human neutrophils (1×10^5 /ml) were added to the perfusate and allowed to recirculate for an additional 15 minutes. At the end of this time the hearts were washed with fresh buffer to remove non-specifically bound neutrophils, dried and counted in a well type gamma-counter. A concentration response curve was generated using concentrations of 0.001, 0.01 and 0.1 mg/ml. […] Table 3 lists the results, expressed as the percent inhibition of neutrophil accumulation.

The test system of the next assay is P-selectin. The assay is described as follows: Flow cytometric assay: inhibition of P-selectin-IgG binding to HL-60 cells. In kind it is cell-based, human. Details: unit of the concentration uncertain. As to the method:
The interaction of P-selectin and its cellular ligand was studied using a flow cytometric assay (Erbe, D. V. et al., J. Cell Biol. (1993) 120:1227). HL60 cells (maintained in high glucose DME plus 10% Hyclone FBS) were used in this assay. Before staining with P-selectin-IgG the cells were preincubated in Dulbecco's PBS/1% BSA/0.1% sodium azide/1% normal rabbit serum (staining medium) for 30-60 mins on ice. After this initial incubation, 1 μg of P-selectin-IgG was added to 100 μl aliquots of 10^6 cells and incubated for 30-60 mins on ice. The cells were when washed with staining medium and resuspended in 100 μl of staining medium to which was added 2 μl of a phycoerythrin-conjugated F(ab')^2 goat anti-human IgG (Fc specific). The cells were incubated for 15-30 mins on ice, washed twice with staining medium, and resuspended in 0.5 ml of staining medium before flow cytometric analysis on a FACScan (Becton Dickinson & Co., Mountain View, Calif.). To determine that the staining was an interaction of P-selectin with its ligand, the staining was also done in the presence of 10 mM EGTA. To determine the protease sensitivity and the requirement for sialic acid of this interaction, HL-60 cells in D-PBS and 1% BSA were incubated with either trypsin or Arthrobacter or Clostridium sialidases at 37° C. before resuspending in staining medium. To examine the ability of various carbohydrates to inhibit staining, 50 μg/ml fucoidin (Sigma Immunochemicals, St. Louis, Mo.), 50 μg/ml dextran sulfate (Pharmacia Fine Chemicals, Piscataway, N.J.), 10 mg/ml mannose-1-phosphate (Sigma Immunochemicals), or 10 mg/ml mannose-6-phosphate (Sigma Immunochemicals) was added to cells immediately before the addition of the P-selectin chimera. Each carbohydrate was then present until the cells were washed before the addition of the second stage antibody. A potential complication of this FACS assay arose from the use of selectin-IgG chimeras to stain cells which bear human IgG Fc receptors (FcγR; Fanger, M. W., et al., Immunol. Today (1989) 10:92). Adding rabbit IgG (in the form of normal rabbit serum) to the assay medium blocked this binding in most cases.
Background: Flow cytometry measures light scatter and fluorescence of single cells or particles in a stream.

We go through one compound from US5658880A, “Sialic acid/fucose based medicaments” (Glycomed Incorporated, priority 1994, dated 1997).

For orientation: inhibition means the relative decrease from the control value, in per cent. Consider `CC(=O)NC1C(O)CC(OCCCCCCOC2OC(C)C(O)C(O)C2O)(C(=O)O)OC1C(O)C(O)CO` [Compound 7, 1-O-α-Neu5Ac-(6-O-α-L-Fucopyranosyl)-Hexane], for which the inhibition at 100 µg/mL in the assay with human neutrophils was 30%. Also, the “Inhibition (%) of P-selectin-IgG binding to HL-60 cells” value is given as 60% in the assay on P-selectin (10 (unit uncertain)), 80% with P-selectin (50 (unit uncertain)) and 80% with P-selectin (100 (unit uncertain)).
